Assays:
[1] = tested on: SMN2 minigene mRNA (SMN2-A minigene) in HEK293H cells; experiment: SMN2 minigene mRNA splicing RT-qPCR assay in cultured cells; assay type: cell-based, human; conditions: Homo sapiens, HEK293-H; concentration increasing full length SMN2 mRNA 1.5-fold relative to vehicle-treated cells; HEK293H cells with SMN2-A minigene, 24 hours, 7-point concentration data; read-out: EC1.5x for production of full length SMN2 mRNA
Summary of the method: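 HEK293H cells stably carrying SMN2-A minigene treated with compounds (7-point, 3.16-fold dilutions, duplicates) for 24 h at 37 °C. Full-length exon 7-containing minigene mRNA measured by multiplex RT-qPCR with GAPDH, normalized and expressed relative to vehicle (modified ΔΔCt); EC1.5× is concentration giving 1.5-fold increase.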

[2] = tested on: Smn protein in SMA patient fibroblast cells (GM03813); experiment: Smn protein assay in cultured cells (SMN HTRF); assay type: cell-based, human; conditions: SMA patient fibroblast cells, 48 hours; for EC1.5x for Smn protein expression: 7-point concentration curve, SMN HTRF, concentration producing 1.5 times Smn protein vs DMSO vehicle control; for maximum fold (Fold) increase of Smn protein: 7-point concentration data, fold relative to vehicle control
Summary of the method: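 SMA patient fibroblasts (5,000/well, DMEM-10% FBS) treated 48 h at 37° C with 7-point, 3.16-fold compound series in triplicate; lysates read by SMN HTRF (665/620 nm ratio). Fold Smn increase over DMSO vehicle derived; EC1.5× is concentration giving 1.5-fold Smn, with maximum fold also reported.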

SMILES | EC (1.5-fold increase) [1] | melting point | EC1.5x for Smn protein expression [2] | maximum fold (Fold) increase of Smn protein [2]
Cc1cn2nc(-c3cc(=O)n4cc(N5CCN[C@H](C)C5)ccc4n3)cc2cn1 [Compound 472, 7-[(3R)-3-methylpiperazin-1-yl]-2-(6-methylpyrazolo[1,5-a]pyrazin-2-yl)-4H-pyrido[1,2-a]pyrimidin-4-one] | < 0.1 µM | 240 to 244 °C | **** (an EC1.5x≤0.3 μM is indicated by four stars (****)) | ***** (a fold increase >1.65 is indicated by five stars (*****))
Cc1cn2nc(-c3cc(=O)n4cc(C5=CCNCC5)ccc4n3)cc2cn1 [Compound 473, 2-(6-methylpyrazolo[1,5-a]pyrazin-2-yl)-7-(1,2,3,6-tetrahydropyridin-4-yl)-4H-pyrido[1,2-a]pyrimidin-4-one] | < 0.1 µM | 260 to 265 °C | **** (an EC1.5x≤0.3 μM is indicated by four stars (****)) | ***** (a fold increase >1.65 is indicated by five stars (*****))
Cn1cc2cc(-c3cc(=O)n4cc(C5=CCNCC5)ccc4n3)ccc2n1 [Compound 474, 2-(2-methyl-2H-indazol-5-yl)-7-(1,2,3,6-tetrahydropyridin-4-yl)-4H-pyrido[1,2-a]pyrimidin-4-one] | < 0.1 µM | 239 to 241 °C | **** (an EC1.5x≤0.3 μM is indicated by four stars (****)) | **** (a fold increase between >1.5 and ≤1.65 is indicated by four stars (****))
CN1CCC(c2ccc3nc(-c4ccc5c(cnn5C)c4)cc(=O)n3c2)CC1 [Compound 475, 2-(1-methyl-1H-indazol-5-yl)-7-(1-methylpiperidin-4-yl)-4H-pyrido[1,2-a]pyrimidin-4-one] | 0.3 to 1 µM | 216 to 218 °C | ** (an EC1.5× between >1 μM and ≤3 μM is indicated by two stars (**)) | *** (a fold increase between >1.35 and ≤1.5 is indicated by three stars (***))
CN1CC=C(c2ccc3nc(-c4ccc5nn(C)cc5c4)cc(=O)n3c2)CC1 [Compound 476, 2-(2-methyl-2H-indazol-5-yl)-7-(1-methyl-1,2,3,6-tetrahydropyridin-4-yl)-4H-pyrido[1,2-a]pyrimidin-4-one] | < 0.1 µM | 226 to 228 °C | **** (an EC1.5x≤0.3 μM is indicated by four stars (****)) | ***** (a fold increase >1.65 is indicated by five stars (*****))
CCN1CC=C(c2ccc3nc(-c4ccc5nn(C)cc5c4)cc(=O)n3c2)CC1 [Compound 477, 7-(1-ethyl-1,2,3,6-tetrahydropyridin-4-yl)-2-(2-methyl-2H-indazol-5-yl)-4H-pyrido[1,2-a]pyrimidin-4-one] | < 0.1 µM | 198 to 200 °C | **** (an EC1.5x≤0.3 μM is indicated by four stars (****)) | **** (a fold increase between >1.5 and ≤1.65 is indicated by four stars (****))
CCN1CCC(c2ccc3nc(-c4ccc5nc(C)cn5c4)cc(=O)n3c2)CC1 [Compound 478, 7-(1-ethylpiperidin-4-yl)-2-(2-methylimidazo[1,2-a]pyridin-6-yl)-4H-pyrido[1,2-a]pyrimidin-4-one] | < 0.1 µM | 190 to 192 °C | **** (an EC1.5x≤0.3 μM is indicated by four stars (****)) | ***** (a fold increase >1.65 is indicated by five stars (*****))
Cc1cn2cc(-c3cc(=O)n4cc(C5=CCN(C(C)C)CC5)ncc4n3)cc2c(C)n1 [Compound 479, 2-(1,3-dimethylpyrrolo[1,2-a]pyrazin-7-yl)-7-[1-(propan-2-yl)-1,2,3,6-tetrahydropyridin-4-yl]-4H-pyrazino[1,2-a]pyrimidin-4-one] | < 0.1 µM | 220 to 222 °C | – | ** (a fold increase between >1.2 and ≤1.35 is indicated by two stars (**))
Cc1cn2nc(-c3cc(=O)n4cc(C5=CCNCC5)cc(C)c4n3)cc2c(C)n1 [Compound 480, 2-(4,6-dimethylpyrazolo[1,5-a]pyrazin-2-yl)-9-methyl-7-(1,2,3,6-tetrahydropyridin-4-yl)-4H-pyrido[1,2-a]pyrimidin-4-one] | < 0.1 µM | > 300 °C | **** (an EC1.5x≤0.3 μM is indicated by four stars (****)) | ***** (a fold increase >1.65 is indicated by five stars (*****))
Cc1cn2nc(-c3cc(=O)n4cc(C5=CCN(C)CC5)ccc4n3)cc2cn1 [Compound 484, 2-(6-methylpyrazolo[1,5-a]pyrazin-2-yl)-7-(1-methyl-1,2,3,6-tetrahydropyridin-4-yl)-4H-pyrido[1,2-a]pyrimidin-4-one] | < 0.1 µM | 126 to 128 °C | **** (an EC1.5x≤0.3 μM is indicated by four stars (****)) | ***** (a fold increase >1.65 is indicated by five stars (*****))
Cc1cc2cc(-c3cc(=O)n4cc(N5CCN(C)CC5)ccc4n3)oc2c(C)n1 [Compound 487, 2-(5,7-dimethylfuro[2,3-c]pyridin-2-yl)-7-(4-methylpiperazin-1-yl)-4H-pyrido[1,2-a]pyrimidin-4-one] | 0.1 to 0.3 µM | 256 to 258 °C | **** (an EC1.5x≤0.3 μM is indicated by four stars (****)) | **** (a fold increase between >1.5 and ≤1.65 is indicated by four stars (****))
Cc1cc2cc(-c3cc(=O)n4cc(N5CCN[C@@H](C)C5)ccc4n3)oc2c(C)n1 [Compound 488, 2-(5,7-dimethylfuro[2,3-c]pyridin-2-yl)-7-[(3S)-3-methylpiperazin-1-yl]-4H-pyrido[1,2-a]pyrimidin-4-one] | < 0.1 µM | 202 to 204 °C | **** (an EC1.5x≤0.3 μM is indicated by four stars (****)) | **** (a fold increase between >1.5 and ≤1.65 is indicated by four stars (****))
CN1CCN(c2ccc3nc(-c4ccc5c(cnn5C)c4)cc(=O)n3c2)CC1 [Compound 489, 2-(1-methyl-1H-indazol-5-yl)-7-(4-methylpiperazin-1-yl)-4H-pyrido[1,2-a]pyrimidin-4-one] | 0.1 to 0.3 µM | 194 to 196 °C | ** (an EC1.5× between >1 μM and ≤3 μM is indicated by two stars (**)) | **** (a fold increase between >1.5 and ≤1.65 is indicated by four stars (****))
Cn1ncc2cc(-c3cc(=O)n4cc(N5CCNCC5)ccc4n3)ccc21 [Compound 490, 2-(1-methyl-1H-indazol-5-yl)-7-(piperazin-1-yl)-4H-pyrido[1,2-a]pyrimidin-4-one] | < 0.1 µM | 206 to 208 °C | *** (an EC1.5× between >0.3 μM and ≤1 μM is indicated by three stars (***)) | ***** (a fold increase >1.65 is indicated by five stars (*****))
CN(C)C1CCN(c2ccc3nc(-c4ccc5c(cnn5C)c4)cc(=O)n3c2)CC1 [Compound 491, 7-[4-(dimethylamino)piperidin-1-yl]-2-(1-methyl-1H-indazol-5-yl)-4H-pyrido[1,2-a]pyrimidin-4-one] | 0.3 to 1 µM | 209 to 212 °C | ** (an EC1.5× between >1 μM and ≤3 μM is indicated by two stars (**)) | **** (a fold increase between >1.5 and ≤1.65 is indicated by four stars (****))
CCN1CC=C(c2ccc3nc(-c4ccc5nc(C)oc5c4)cc(=O)n3n2)CC1 [Compound 493, 7-(1-ethyl-1,2,3,6-tetrahydropyridin-4-yl)-2-(2-methyl-1,3-benzoxazol-6-yl)-4H-pyrimido[1,2-b]pyridazin-4-one] | < 0.1 µM | 205 to 207 °C | *** (an EC1.5× between >0.3 μM and ≤1 μM is indicated by three stars (***)) | **** (a fold increase between >1.5 and ≤1.65 is indicated by four stars (****))
CCN1CCN(c2ccc3nc(-c4cc(Cl)c5nc(C)cn5c4)cc(=O)n3c2)CC1 [Compound 494, 2-(8-chloro-2-methylimidazo[1,2-a]pyridin-6-yl)-7-(4-ethylpiperazin-1-yl)-4H-pyrido[1,2-a]pyrimidin-4-one] | < 0.1 µM | 264 to 268 °C | **** (an EC1.5x≤0.3 μM is indicated by four stars (****)) | **** (a fold increase between >1.5 and ≤1.65 is indicated by four stars (****))
CCN1CCN(c2ccc3nc(-c4cc(Cl)c5nc(C)cn5c4)cc(=O)n3c2)C[C@H]1C [Compound 495, 2-(8-chloro-2-methylimidazo[1,2-a]pyridin-6-yl)-7-[(3R)-4-ethyl-3-methylpiperazin-1-yl]-4H-pyrido[1,2-a]pyrimidin-4-one] | < 0.1 µM | 239 to 245 °C | **** (an EC1.5x≤0.3 μM is indicated by four stars (****)) | ***** (a fold increase >1.65 is indicated by five stars (*****))

From patent publication US11753407B2, “Compounds for treating spinal muscular atrophy” (PTC Therapeutics, Inc., priority 2012, dated 2023)
